# Experimental data as given in patent publication US10208037B2, “Toll-like receptor-7 and -8 modulatory 1H imidazoquinoline derived compounds” (The University of Kansas, priority 2011, dated 2019).
# pEC50, pIC50: −log10 of the molar value.
# How the values were obtained:
# Assay type in all cases: cell-based
# [1] = tested on: TLR7 and TLR8-induced cytokine and chemokine release; test: Inhibition of TLR7- and TLR8-mediated cytokine and chemokine production in human PBMCs; settings: hPBMCs
# Method: FIGS. 22A-[…] illustrate inhibition of TLR7-mediated (FIGS. 22A-22D) and TLR8-mediated (FIGS. 22E-[…]) proinflammatory cytokine production in human peripheral blood mononuclear cells by chloroquine or 47a. Proinflammatory cytokines were assayed by cytokine bead array methods after incubation of hPBMCs with graded concentrations of the test compound for 12 h in the presence of 10 μg/ml of either CL075 (TLR8 agonist) or gardiquimod (TLR7 agonist). FIGS. 23A-23D illustrate inhibition of TLR7-mediated (FIGS. 23A-23B) and TLR8-mediated (FIGS. 23C-3D) chemokine production in human peripheral blood mononuclear cells by chloroquine or 47a. Chemokines were assayed by cytokine bead array methods after incubation of hPBMCs with graded concentrations of the test compound for 12 h in the presence of 10 μg/ml of either CL075 (TLR8 agonist) or gardiquimod (TLR7 agonist). Aliquots (10^6 cells in 100 μL) of hPBMCs isolated from blood obtained from healthy human donors after informed consent by conventional Ficoll-Hypaque gradient centrifugation were stimulated for 12 h with graded concentrations of test compounds. The supernatant was isolated by centrifugation, diluted 1:20, and cytokines and chemokines were assayed in triplicate using analyte-specific cytokine/chemokine bead array assays as reported by us previously.^74
# TLR8 [2] = biological target: T1, TLR8 (Homo sapiens, UniProt Q9NR97); test: TLR8 reporter gene assay, antagonism (CL075 as agonist); settings: for pIC50: agonist CL075 1 μg/mL, ND = not detected
# T1 construct: expressed in transfected cells; host or cells: HEK293 (HEK-Blue-8 cells)
# T1 sequence (Q9NR97 27-1041): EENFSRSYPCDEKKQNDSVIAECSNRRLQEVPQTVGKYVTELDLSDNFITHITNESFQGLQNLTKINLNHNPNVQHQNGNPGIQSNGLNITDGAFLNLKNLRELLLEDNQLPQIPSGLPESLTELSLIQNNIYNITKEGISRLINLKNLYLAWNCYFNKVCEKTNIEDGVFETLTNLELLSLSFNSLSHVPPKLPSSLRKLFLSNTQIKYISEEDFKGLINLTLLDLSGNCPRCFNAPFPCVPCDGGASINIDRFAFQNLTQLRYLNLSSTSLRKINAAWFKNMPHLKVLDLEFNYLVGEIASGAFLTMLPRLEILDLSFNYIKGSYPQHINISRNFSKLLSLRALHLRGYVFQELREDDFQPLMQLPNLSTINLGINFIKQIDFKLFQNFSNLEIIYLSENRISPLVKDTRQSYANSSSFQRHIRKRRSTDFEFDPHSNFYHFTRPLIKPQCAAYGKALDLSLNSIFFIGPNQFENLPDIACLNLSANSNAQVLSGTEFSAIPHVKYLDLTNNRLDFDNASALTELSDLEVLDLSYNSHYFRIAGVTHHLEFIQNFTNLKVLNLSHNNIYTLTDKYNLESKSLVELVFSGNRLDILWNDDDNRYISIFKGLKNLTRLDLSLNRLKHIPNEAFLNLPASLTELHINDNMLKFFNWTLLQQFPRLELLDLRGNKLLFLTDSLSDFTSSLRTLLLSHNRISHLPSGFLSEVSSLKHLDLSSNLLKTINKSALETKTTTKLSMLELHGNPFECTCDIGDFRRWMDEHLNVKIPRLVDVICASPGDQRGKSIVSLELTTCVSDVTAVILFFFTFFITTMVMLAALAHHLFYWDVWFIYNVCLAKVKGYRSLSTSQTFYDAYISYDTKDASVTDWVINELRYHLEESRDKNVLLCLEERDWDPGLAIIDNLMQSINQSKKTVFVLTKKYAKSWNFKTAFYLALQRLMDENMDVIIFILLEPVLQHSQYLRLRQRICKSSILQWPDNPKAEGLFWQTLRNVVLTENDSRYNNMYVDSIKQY
# Excerpt: (§1) The induction of NF-κB was quantified using HEK-Blue-3, HEK-Blue-7 and HEK-Blue-8 cells as previously described by us.^8,24,51 HEK293 cells were stably transfected with human TLR3 (or human TLR7 or human TLR8), MD2, and secreted alkaline phosphatase (sAP), and were maintained in HEK-Blue™ Selection medium containing zeocin and normocin. Stable expression of secreted alkaline phosphatase (sAP) under control of NF-κB/AP-1 promoters is inducible by the TLR3 (or TLR7 or TLR8) agonists, and extracellular sAP in the supernatant is proportional to NF-κB induction. HEK-Blue cells were incubated at a density of ˜10^5 cells/ml in a volume of 80 μl/well, in 384-well, flat-bottomed, cell culture-treated microtiter plates until confluency was achieved, and subsequently graded concentrations of stimuli. sAP was assayed spectrophotometrically using an alkaline phosphatase-specific chromogen (present in HEK-detection medium as supplied by the vendor) at 620 nm.
# (§2) Antagonism assays were done as described by us earlier^73 using the following agonists at a constant concentration: TLR3 Poly(I:C) (10 ng/mL); TLR7: gardiquimod (1 μg/mL); TLR8: CL075 (1 μg/mL) mixed with graded concentrations of the test compounds.
# TLR7 [3] = biological target: T2, TLR7 (Homo sapiens, UniProt Q9NYK1); test: TLR7 reporter gene assay, antagonism (gardiquimod as agonist)
# T2 construct: expressed in transfected cells; host or cells: HEK293 (HEK-Blue-7 cells)
# T2 sequence (Q9NYK1 27-1049): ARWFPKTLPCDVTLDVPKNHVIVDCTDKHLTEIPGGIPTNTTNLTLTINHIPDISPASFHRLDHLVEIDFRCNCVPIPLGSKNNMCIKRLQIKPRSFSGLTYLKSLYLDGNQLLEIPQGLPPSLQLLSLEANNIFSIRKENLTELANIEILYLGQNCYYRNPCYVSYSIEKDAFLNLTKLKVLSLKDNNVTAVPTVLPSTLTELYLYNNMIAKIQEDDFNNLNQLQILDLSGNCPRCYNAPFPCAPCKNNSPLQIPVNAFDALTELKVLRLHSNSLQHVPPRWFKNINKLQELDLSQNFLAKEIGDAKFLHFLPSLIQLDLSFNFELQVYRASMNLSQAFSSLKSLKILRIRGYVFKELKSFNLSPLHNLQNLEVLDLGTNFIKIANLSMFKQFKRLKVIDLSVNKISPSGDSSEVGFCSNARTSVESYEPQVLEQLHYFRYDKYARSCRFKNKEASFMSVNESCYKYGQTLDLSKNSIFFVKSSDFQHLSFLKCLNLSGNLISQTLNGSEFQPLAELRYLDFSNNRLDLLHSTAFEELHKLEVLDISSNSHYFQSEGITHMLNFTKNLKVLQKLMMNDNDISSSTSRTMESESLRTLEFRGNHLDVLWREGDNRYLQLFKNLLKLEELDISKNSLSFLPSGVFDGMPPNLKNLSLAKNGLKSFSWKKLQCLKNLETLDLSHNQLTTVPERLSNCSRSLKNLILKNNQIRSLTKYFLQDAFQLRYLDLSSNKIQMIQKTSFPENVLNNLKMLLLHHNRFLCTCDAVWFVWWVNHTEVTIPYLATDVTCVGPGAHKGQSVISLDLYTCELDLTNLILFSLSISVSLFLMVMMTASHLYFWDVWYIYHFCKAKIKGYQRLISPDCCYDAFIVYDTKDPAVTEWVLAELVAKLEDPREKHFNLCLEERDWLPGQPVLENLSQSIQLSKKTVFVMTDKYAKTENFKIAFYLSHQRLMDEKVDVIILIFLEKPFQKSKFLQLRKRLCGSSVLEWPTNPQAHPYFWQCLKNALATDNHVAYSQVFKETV
# Excerpt: as §1, §2
# TLR8 [4] = biological target: T1, TLR8; test: TLR8 reporter gene assay (NF-κB induction, HEK-Blue-8 cells), agonism
# Excerpt: (§3) NF-κB induction: The induction of NF-κB was quantified using HEK-Blue-7 cells and HEK-Blue-8 cells as previously described by us.^8,24 HEK293 cells were stably transfected with human TLR7 (or human TLR8), MD2, and secreted alkaline phosphatase (sAP), and were maintained in HEK-Blue™ Selection medium containing zeocin and normocin. Stable expression of secreted alkaline phosphatase (sAP) under control of NF-κB/AP-1 promoters is inducible by the TLR7 (or TLR8) agonists, and extracellular sAP in the supernatant is proportional to NF-κB induction. HEK-Blue cells were incubated at a density of […] in a volume of 80 μL/well, in 384-well, flat-bottomed, cell culture-treated microtiter plates until confluency was achieved, and subsequently graded concentrations of stimuli. sAP was assayed spectrophotometrically using an alkaline phosphatase-specific chromogen (present in HEK-detection medium as supplied by the vendor) at 620 nm.
# as §1
# TLR7 [5] = biological target: T2, TLR7; test: TLR7 reporter gene assay (NF-κB induction, HEK-Blue-7 cells), agonism; settings: Table 1; ND = not detected; read-out: TLR7 Agonism
# Excerpt: as §3, §1
Structure (SMILES),TLR8 antagonistic activity (in words) (TLR8 [2]),pIC50 (TLR8 [2]),TLR7 antagonistic activity (in words) (TLR7 [3]),TLR8-agonistic activity (in words) (TLR8 [4]),pEC50 (TLR7 [5]),"pIC50 (TLR7 [3]; agonist gardiquimod 1 μg/mL, ND = not detected)",Inhibition of TNF-α and IL-1β production (in words) [1]
"CCN(CC)CCCC(C)Nc1ccnc2cc(Cl)ccc12 (stereo not shown) [Chloroquine, reference compound]",–,–,–,–,–,–,feeble inhibitor
"Nc1nc2ccccc2c2c1nc(CCCCCCCCCCc1nc3c(N)nc4ccccc4c3n1Cc1ccccc1)n2Cc1ccccc1 [Compound 49b, 2,2′-(decane-1,10-diyl)bis(1-benzyl-1H-imidazo[4,5-c]quinolin-4-amine)]",potent antagonistic activity,5.33,potent antagonistic activity,–,–,4.75,–
"Nc1nc2ccccc2c2c1nc(CCCCCCc1nc3c(N)nc4ccccc4c3n1Cc1ccccc1)n2Cc1ccccc1 [Compound 49a, 2,2′-(hexane-1,6-diyl)bis(1-benzyl-1H-imidazo[4,5-c]quinolin-4-amine)]",potent antagonistic activity,4.96,potent antagonistic activity,–,–,–,–

# Now from value to compound, other results behind:
TLR8 antagonistic activity (in words) (TLR8 [2]),pIC50 (TLR8 [2]),TLR7 antagonistic activity (in words) (TLR7 [3]),TLR8-agonistic activity (in words) (TLR8 [4]),pEC50 (TLR7 [5]),"pIC50 (TLR7 [3]; agonist gardiquimod 1 μg/mL, ND = not detected)",Structure (SMILES),Inhibition of TNF-α and IL-1β production (in words) [1]
potent antagonistic activity,4.81,potent antagonistic activity,–,–,–,"Nc1nc2ccccc2c2c1nc(CCCCc1nc3c(N)nc4ccccc4c3n1Cc1ccccc1)n2Cc1ccccc1 [Compound 47b, 2,2′-(butane-1,4-diyl)bis(1-benzyl-1H-imidazo[4,5-c]quinolin-4-amine)]",–
–,–,–,dual TLR7/TLR8 activity,5.27,–,"CCCCc1nc2c(N)nc3ccc(NC(=O)CCCCCCCCCCC(=O)Nc4ccc5nc(N)c6nc(CCCC)n(Cc7ccc(CN)cc7)c6c5c4)cc3c2n1Cc1ccc(CN)cc1 [Compound 55c, N^1,N^12-bis(4-amino-1-(4-(aminomethyl)benzyl)-2-butyl-1H-imidazo[4,5-c]quinolin-8-yl) dodecanediamide]",–
